In BindingDB's records for doi:10.1016/S0960-894X(01)00722-3 (Janssen-Cilag, 2001) one finds IC50 data, which are given here for 19 compounds.

Where only a bound is given, the exact number is not on record here.

One test addresses Histamine H1 receptor (Homo sapiens, UniProt P35367). Nature of the test: ChEBML_84541. The source says:
Binding affinity at human cloned Histamine H1 receptor expressed in CHO cells by [3H]pyrilamine displacement.

For test [1], the target named is T1, 5-hydroxytryptamine receptor 2C (Homo sapiens, UniProt P28335).
T1 sequence (P28335 whole entry): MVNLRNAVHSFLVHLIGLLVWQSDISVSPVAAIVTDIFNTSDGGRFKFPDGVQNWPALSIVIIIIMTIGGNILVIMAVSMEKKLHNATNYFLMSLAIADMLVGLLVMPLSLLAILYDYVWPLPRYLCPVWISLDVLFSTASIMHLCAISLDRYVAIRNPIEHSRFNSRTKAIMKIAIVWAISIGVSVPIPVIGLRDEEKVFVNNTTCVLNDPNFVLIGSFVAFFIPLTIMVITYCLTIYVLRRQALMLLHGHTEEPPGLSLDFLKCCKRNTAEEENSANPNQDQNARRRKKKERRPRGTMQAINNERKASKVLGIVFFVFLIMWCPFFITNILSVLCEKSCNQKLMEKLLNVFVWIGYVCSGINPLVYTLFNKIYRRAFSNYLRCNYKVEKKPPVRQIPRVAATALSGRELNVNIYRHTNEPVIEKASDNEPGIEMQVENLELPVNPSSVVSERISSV
Briefly: ChEBML_2740. An excerpt:
Binding affinity at human cloned 5-hydroxytryptamine 2C receptor expressed in CHO cells by [3H]mesulergine displacement.

The target of test [2] is T2, 5-hydroxytryptamine receptor 2A (Homo sapiens, UniProt P28223). Briefly: ChEBML_2507. The source says: (§1) Binding affinity for human cloned 5-HT2A receptor expressed in L929 cells using [125I]R91150 as radioligand
A further test has as its target D(3) dopamine receptor (Homo sapiens, UniProt P35462). Nature of the test: ChEBML_62451. An excerpt: Binding affinity for human cloned Dopamine receptor D3
Test [3] deals with D(2) dopamine receptor (Homo sapiens, UniProt P14416). Briefly: ChEBML_61646. The source says:
Binding affinity for human cloned Dopamine receptor D2L

The target in test [4] is T3, 5-hydroxytryptamine receptor 1A (Homo sapiens, UniProt P08908).
T3 sequence (P08908 whole entry): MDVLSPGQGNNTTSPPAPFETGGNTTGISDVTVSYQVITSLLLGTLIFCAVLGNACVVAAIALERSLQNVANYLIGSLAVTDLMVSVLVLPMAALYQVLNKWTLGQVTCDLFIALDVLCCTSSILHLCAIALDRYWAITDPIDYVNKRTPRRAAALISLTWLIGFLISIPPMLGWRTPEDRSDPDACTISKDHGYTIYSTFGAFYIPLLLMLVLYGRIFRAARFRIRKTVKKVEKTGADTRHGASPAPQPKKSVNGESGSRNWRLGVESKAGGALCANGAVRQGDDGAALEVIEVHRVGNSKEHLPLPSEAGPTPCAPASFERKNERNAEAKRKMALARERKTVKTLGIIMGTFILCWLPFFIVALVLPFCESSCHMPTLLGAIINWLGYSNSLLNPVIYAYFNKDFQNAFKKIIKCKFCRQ
Briefly: ChEBML_1016. An excerpt:
Binding affinity for human cloned 5-hydroxytryptamine 1A receptor

Test [5] has as its target 5-hydroxytryptamine receptor 1D (Homo sapiens, UniProt P28221). Briefly: ChEBML_1745. An excerpt: Binding affinity for human cloned 5-hydroxytryptamine 1D receptor
The target of test [6] is T4, Alpha-2C adrenergic receptor (Homo sapiens, UniProt P18825).
T4 sequence (P18825 whole entry): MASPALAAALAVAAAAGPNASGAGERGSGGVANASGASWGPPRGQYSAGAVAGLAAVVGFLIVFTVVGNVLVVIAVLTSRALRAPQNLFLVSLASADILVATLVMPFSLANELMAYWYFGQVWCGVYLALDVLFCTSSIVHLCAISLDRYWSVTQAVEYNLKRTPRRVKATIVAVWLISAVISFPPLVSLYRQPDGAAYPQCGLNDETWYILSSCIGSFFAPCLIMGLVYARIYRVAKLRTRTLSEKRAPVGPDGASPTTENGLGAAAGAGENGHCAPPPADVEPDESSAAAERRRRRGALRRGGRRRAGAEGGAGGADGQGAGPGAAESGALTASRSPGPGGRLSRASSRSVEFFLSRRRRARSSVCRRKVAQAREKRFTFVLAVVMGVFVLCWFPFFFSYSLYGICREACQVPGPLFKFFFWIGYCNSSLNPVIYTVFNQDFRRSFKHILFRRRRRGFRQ
Briefly: ChEBML_33661. The source says: Binding affinity for human cloned Alpha-2C adrenergic receptor

Test [7] addresses T5, Alpha-1A adrenergic receptor (Homo sapiens, UniProt P35348).
T5 sequence (P35348 whole entry): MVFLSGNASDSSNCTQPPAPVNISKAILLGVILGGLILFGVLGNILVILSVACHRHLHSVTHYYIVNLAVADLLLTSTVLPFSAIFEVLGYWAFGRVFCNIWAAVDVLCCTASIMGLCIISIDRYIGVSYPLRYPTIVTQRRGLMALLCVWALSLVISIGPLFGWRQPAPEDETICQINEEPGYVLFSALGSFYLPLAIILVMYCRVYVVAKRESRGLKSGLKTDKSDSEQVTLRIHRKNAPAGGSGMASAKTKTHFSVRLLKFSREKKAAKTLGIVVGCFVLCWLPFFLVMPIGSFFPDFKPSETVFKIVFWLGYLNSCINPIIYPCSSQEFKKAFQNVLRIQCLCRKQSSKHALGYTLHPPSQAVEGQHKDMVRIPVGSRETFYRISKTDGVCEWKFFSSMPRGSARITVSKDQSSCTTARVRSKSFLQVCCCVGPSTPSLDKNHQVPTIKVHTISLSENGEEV
Nature of the test: ChEBML_33869. The source says:
Binding affinity for human cloned Alpha-1A adrenergic receptor

In a further test the target is T6, D(4) dopamine receptor (Homo sapiens, UniProt P21917).
T6 sequence (P21917 whole entry): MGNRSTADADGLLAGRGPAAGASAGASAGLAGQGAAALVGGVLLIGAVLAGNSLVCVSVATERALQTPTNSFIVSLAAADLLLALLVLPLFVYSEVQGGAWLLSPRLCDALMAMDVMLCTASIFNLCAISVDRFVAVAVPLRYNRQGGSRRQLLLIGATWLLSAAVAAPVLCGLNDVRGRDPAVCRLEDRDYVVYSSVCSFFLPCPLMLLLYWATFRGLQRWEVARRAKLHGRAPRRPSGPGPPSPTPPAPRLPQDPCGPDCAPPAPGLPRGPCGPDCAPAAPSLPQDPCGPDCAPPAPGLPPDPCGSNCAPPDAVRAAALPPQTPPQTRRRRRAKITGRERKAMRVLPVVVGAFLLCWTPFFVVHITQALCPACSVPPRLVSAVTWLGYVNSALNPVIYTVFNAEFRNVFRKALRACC
Nature of the test: ChEBML_60841. An excerpt:
Binding affinity for human cloned Dopamine receptor D4

For test [8], the target named is T7, Alpha-2A adrenergic receptor (Homo sapiens, UniProt P08913).
T7 sequence (P08913 whole entry): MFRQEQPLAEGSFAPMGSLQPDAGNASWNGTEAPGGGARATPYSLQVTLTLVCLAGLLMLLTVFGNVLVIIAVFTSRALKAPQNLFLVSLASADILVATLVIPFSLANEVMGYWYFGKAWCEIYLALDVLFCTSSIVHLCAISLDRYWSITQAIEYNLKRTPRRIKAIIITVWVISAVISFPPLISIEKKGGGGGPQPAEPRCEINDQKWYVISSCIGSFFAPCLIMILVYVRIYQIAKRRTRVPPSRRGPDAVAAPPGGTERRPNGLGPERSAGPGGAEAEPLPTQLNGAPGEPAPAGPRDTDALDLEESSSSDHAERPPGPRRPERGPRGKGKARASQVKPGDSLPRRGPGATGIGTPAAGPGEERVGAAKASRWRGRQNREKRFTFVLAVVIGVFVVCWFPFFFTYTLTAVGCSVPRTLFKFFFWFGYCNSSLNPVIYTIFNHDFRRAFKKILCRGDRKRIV
Nature of the test: ChEBML_33198. The source says:
Binding affinity for human cloned Alpha-2A adrenergic receptor

Test [9] concerns the target D(2) dopamine receptor (Rattus norvegicus, UniProt P61169). Nature of the test: ChEBML_60811. An excerpt:
Binding affinity for rat Dopamine receptor D2

Test [10] deals with T2, 5-hydroxytryptamine receptor 2A. The description is as §1.

The term IC50 denotes the concentration at which inhibition is half-maximal.

Sequence of D(2) dopamine receptor (Rattus norvegicus, UniProt P61169) (P61169 whole entry): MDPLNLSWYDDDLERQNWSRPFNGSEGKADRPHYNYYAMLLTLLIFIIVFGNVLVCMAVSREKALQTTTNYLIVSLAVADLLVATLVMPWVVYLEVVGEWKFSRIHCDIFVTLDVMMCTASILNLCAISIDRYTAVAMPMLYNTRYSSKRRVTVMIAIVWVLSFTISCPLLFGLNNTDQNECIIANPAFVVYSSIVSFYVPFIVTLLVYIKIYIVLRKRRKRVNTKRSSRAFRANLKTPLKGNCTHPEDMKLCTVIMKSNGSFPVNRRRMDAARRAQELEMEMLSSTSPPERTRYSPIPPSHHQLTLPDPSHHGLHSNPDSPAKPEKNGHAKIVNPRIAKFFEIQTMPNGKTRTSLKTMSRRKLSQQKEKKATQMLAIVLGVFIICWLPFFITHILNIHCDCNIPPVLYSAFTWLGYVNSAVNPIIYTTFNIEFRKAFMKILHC
T2 sequence (P28223 whole entry): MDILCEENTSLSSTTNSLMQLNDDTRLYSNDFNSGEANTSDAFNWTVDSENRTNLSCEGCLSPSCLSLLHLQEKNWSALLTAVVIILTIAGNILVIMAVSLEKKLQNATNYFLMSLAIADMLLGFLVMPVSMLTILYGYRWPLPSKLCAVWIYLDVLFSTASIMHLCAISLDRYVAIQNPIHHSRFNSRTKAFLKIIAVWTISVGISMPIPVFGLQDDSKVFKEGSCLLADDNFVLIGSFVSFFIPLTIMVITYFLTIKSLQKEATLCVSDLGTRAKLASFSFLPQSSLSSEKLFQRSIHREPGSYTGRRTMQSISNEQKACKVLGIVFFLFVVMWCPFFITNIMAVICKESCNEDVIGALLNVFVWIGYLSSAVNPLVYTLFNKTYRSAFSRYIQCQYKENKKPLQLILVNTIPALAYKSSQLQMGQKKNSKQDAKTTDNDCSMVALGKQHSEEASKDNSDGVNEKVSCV
Sequence of D(3) dopamine receptor (P35462 as listed by the source): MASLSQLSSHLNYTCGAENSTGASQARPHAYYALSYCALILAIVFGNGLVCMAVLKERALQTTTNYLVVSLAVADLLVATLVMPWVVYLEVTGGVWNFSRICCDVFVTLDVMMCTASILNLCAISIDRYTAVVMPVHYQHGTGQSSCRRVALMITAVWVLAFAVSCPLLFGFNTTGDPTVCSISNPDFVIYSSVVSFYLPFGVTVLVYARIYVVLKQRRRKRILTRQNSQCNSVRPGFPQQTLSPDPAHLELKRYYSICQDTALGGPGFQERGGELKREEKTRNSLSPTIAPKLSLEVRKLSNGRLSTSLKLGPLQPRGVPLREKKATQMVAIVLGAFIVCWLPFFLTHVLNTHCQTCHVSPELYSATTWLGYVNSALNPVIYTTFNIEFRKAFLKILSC
Sequence of 5-hydroxytryptamine receptor 1D (P28221 whole entry): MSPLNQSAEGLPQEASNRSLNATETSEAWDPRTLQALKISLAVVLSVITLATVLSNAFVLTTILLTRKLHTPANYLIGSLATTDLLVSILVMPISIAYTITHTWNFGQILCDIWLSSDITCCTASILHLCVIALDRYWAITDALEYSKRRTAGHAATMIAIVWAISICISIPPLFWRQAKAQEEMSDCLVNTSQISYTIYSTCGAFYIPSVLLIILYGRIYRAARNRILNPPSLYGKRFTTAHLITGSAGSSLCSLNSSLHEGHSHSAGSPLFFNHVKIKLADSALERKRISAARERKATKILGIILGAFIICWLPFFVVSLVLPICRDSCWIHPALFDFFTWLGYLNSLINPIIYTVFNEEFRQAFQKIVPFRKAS
Sequence of D(2) dopamine receptor (Homo sapiens, UniProt P14416) (P14416 whole entry): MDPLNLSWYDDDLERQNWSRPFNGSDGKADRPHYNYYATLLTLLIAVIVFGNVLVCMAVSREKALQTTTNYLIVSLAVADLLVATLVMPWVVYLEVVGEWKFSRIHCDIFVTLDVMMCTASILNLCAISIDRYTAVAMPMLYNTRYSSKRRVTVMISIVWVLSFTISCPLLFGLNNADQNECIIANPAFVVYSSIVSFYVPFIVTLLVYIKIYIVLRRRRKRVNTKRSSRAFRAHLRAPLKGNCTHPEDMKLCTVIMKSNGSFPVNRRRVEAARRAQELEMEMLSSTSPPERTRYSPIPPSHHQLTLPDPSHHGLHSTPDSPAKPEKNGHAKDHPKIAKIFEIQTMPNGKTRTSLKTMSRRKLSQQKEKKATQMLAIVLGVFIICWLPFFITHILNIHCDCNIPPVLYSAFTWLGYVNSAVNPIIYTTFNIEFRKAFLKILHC
Sequence of Histamine H1 receptor (P35367 whole entry): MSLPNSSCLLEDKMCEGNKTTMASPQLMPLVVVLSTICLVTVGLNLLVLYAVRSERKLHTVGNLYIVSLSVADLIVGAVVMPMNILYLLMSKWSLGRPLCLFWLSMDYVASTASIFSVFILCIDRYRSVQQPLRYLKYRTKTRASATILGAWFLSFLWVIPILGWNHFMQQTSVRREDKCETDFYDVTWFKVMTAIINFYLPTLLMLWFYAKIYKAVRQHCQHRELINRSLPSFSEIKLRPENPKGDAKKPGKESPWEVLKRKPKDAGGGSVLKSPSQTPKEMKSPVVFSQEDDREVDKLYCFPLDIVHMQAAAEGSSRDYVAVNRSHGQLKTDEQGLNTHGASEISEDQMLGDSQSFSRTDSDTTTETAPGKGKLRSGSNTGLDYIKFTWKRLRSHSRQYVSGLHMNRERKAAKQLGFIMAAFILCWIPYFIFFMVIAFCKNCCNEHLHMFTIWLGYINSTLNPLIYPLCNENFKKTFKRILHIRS

Turning to `CN(C)CC1CC2c3cccc(Cl)c3Cc3ccccc3N2O1` (configuration not stated), the IC50 (against Histamine H1 receptor; in test [1]; in test [2]) was below 1 µM each time.

Take `CN(C)CC1CC2c3cc(F)ccc3Cc3ccccc3N2O1` (configuration not stated): the concentration for half-maximal inhibition (IC50) came out at 0.0038 µM against Histamine H1 receptor, 0.011 µM in test [1] and 0.054 µM in [2].

For the compound `CN(C)CC1CC2c3cc(C(F)(F)F)ccc3Cc3ccccc3N2O1` (configuration not stated), the IC50 (on Histamine H1 receptor; in test [1]; in test [2]) was below 1 µM in each case.

In the case of `CN(C)CC1CC2c3ccccc3Cc3cc(F)ccc3N2O1` (configuration not stated), the results for the IC50 (against Histamine H1 receptor; in test [1]; in test [2]) were 0.0013 µM, 0.0047 µM and 0.0069 µM, respectively.

With `CN(C)CC1CC2c3cccc(F)c3Cc3ccccc3N2O1` (configuration not stated), the IC50 was 0.0023 µM at Histamine H1 receptor and 0.012 µM in test [1].

For the compound `CN(C)CC1CC2c3cc(F)ccc3Cc3ccc(F)cc3N2O1` (configuration not stated), the IC50 at Histamine H1 receptor was 0.017 µM; on D(3) dopamine receptor, below 1 µM; in [1] it was 0.0062 µM; at D(2) dopamine receptor [3] it was 0.447 µM; in test [4], below 1 µM; in [5] it was below 1 µM. Further, the IC50 in test [6] was below 1 µM; in [7] it was 0.162 µM; against D(4) dopamine receptor, below 1 µM; in [8], below 1 µM.

For the compound `Cc1ccc2c(c1)N1OC(CN(C)C)CC1c1ccccc1C2` (configuration not stated), the IC50 against Histamine H1 receptor was 0.0059 µM; against D(3) dopamine receptor, below 1 µM; in test [1] it was 0.003 µM; on D(2) dopamine receptor [3] it was 0.055 µM; in [4] it was below 1 µM; in [5], below 1 µM. Further, the concentration for half-maximal inhibition (IC50) in test [6] was below 1 µM; in test [2] it was 0.0031 µM; in test [7] it was 0.043 µM; at D(2) dopamine receptor [9] it was below 1 µM; against D(4) dopamine receptor, below 1 µM; in test [8], below 1 µM.

As to `CN(C)CC1CC2c3ccccc3Cc3ccc(-c4ccccc4)cc3N2O1` (configuration not stated), the IC50 in [10] amounted to 0.022 µM; against Histamine H1 receptor, 0.0079 µM; in test [1], 0.011 µM.

Consider `Cc1ccc2c(c1)Cc1ccccc1N1OC(CN(C)C)CC21` (configuration not stated), for which the values for the IC50 (at Histamine H1 receptor; in test [1]) were 0.016 µM and 0.0063 µM, respectively.

Take `CN(C)CC1CC2c3ccccc3Cc3c(F)cccc3N2O1` (configuration not stated): the half-maximal inhibitory concentration (IC50) came out at 0.0017 µM against Histamine H1 receptor, 0.005 µM in test [1] and 0.024 µM in test [2].

Take `CN(C)CC1CC2c3ccccc3Cc3ccc(Cl)cc3N2O1` (configuration not stated): the half-inhibitory concentration (IC50) on Histamine H1 receptor came out at 0.0023 µM; against D(3) dopamine receptor, 0.00055 µM; in test [1] it was 0.001 µM; against D(2) dopamine receptor [3], 0.0087 µM; in test [4], 0.2 µM; in [5], 0.135 µM. For the same compound, the IC50 in [6] was 0.871 µM; in test [2], 0.0035 µM; in test [7], 0.014 µM; at D(2) dopamine receptor [9], 0.0089 µM; on D(4) dopamine receptor it was 0.0026 µM; in [8] it was 0.479 µM.

Regarding `COc1ccc2c(c1)C1CC(CN(C)C)ON1c1ccccc1C2` (configuration not stated), the values for the IC50 (against Histamine H1 receptor; in test [1]; in test [2]) were 0.014 µM, 0.019 µM and 0.302 µM, respectively.

As for `Cc1cccc2c1Cc1ccccc1C1CC(CN(C)C)ON21` (configuration not stated), the IC50 was determined as 0.006 µM against Histamine H1 receptor, 0.0039 µM in [1] and 0.091 µM in [2].

As to `Cc1cccc2c1C1CC(CN(C)C)ON1c1ccccc1C2` (configuration not stated), the figures for the IC50 (on Histamine H1 receptor; in [1]; in [2]) were 0.012 µM, 0.03 µM and 0.048 µM, respectively.

As for `CN(C)CC1CC2c3cccc(C(F)(F)F)c3Cc3ccccc3N2O1` (configuration not stated), the IC50 against Histamine H1 receptor was found to be 0.037 µM; in test [1] it was 0.437 µM; in [2] it was 1 µM.

For `CN(C)CC1CC2c3ccccc3Cc3cccc(Cl)c3N2O1` (configuration not stated), the IC50 against Histamine H1 receptor stood at 0.015 µM; in test [1], 0.01 µM; in test [2], 0.032 µM.

`CN(C)CC1CC2c3c(F)cccc3Cc3ccccc3N2O1` (configuration not stated): the IC50 (against Histamine H1 receptor; in [1]; in test [2]) was below 1 µM in each case.

On to `CN(C)CC1CC2c3c(cccc3C(F)(F)F)Cc3ccccc3N2O1` (configuration not stated), for which the figures for the IC50 (on Histamine H1 receptor; in test [1]; in test [2]) were 0.048 µM, 0.0076 µM and 0.068 µM, respectively.

As to `CN(C)CC1CC2c3ccccc3Cc3ccc(F)cc3N2O1` (configuration not stated), the IC50 turned out to be 0.0026 µM against Histamine H1 receptor; 0.014 µM on D(3) dopamine receptor; 0.036 µM against D(2) dopamine receptor [3]; 1.59 µM in [4]; 0.302 µM in [5]; 1.17 µM in test [6]. For the same compound, the IC50 is 0.045 µM in test [7], below 1 µM against D(2) dopamine receptor [9], 0.014 µM against D(4) dopamine receptor and 0.501 µM in test [8].
